Biological target: T1, VMAT-2 (Homo sapiens, UniProt Q05940)
T1 construct: Novascreen Biosciences Corporation (contract assay provider) protocol Cat. No. 100-0751
Test: VMAT-2 binding affinity measurement, Novascreen protocol Cat. No. 100-0751
Conditions: for Ki: VMAT-2 binding affinity
Procedure: VMAT-2 binding affinity measurements were carried out by Novascreen Biosciences Corporation (Hanover, Md., USA) using protocol Cat. No. 100-0751. Novascreen, Inc. is a commercial provider of biological assays for the pharmaceutical industry.

T1 sequence (Q05940 whole entry, species assumed): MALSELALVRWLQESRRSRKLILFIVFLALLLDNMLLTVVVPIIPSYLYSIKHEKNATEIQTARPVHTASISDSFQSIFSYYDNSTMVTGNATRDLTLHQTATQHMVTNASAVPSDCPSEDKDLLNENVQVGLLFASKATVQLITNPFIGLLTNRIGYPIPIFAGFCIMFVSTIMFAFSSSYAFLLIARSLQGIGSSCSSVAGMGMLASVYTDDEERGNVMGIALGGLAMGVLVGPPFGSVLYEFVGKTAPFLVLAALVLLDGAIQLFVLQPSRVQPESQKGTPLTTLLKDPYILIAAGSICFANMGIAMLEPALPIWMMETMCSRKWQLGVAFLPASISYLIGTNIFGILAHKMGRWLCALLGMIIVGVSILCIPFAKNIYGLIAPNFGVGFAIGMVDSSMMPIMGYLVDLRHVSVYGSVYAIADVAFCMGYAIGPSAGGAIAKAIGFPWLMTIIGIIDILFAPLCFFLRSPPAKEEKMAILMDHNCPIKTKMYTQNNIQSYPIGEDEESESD

| VMAT-2 binding affinity, in words | Ki [nM] | SMILES |
| --- | --- | --- |
| very high binding affinity | 3.2 | COc1cc2c(cc1OC)[C@H]1C[C@@H](OCCF)[C@H](CC(C)C)CN1CC2 [Compound 22] |
| very high binding affinity | 6.4 | COc1cc2c(cc1OC)[C@H]1C[C@@H](OCCCF)[C@H](CC(C)C)CN1CC2 [Compound 23] |

From patent US7897770B2 (General Electric Company, priority 2007, dated 2011)
